According to US10590086B2, “Pharmaceutical compound” (IOmet Pharma Ltd., priority 2014, dated 2020):

Tests used:
TDO [1] = target: T1, TDO (Homo sapiens, UniProt P48775); assay: A172 kynurenine cell-based assay; parameters: This assay utilised cancer cells which expressed either TDO or IDO; endogenous in cells; host or cells: A172 (human glioblastoma); details: A172 human glioblastoma cells, 48 hours, read-out: A172 Kynurenine cell based assay pIC50 (converted)
Summary of the method: (§1)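 A172 glioblastoma cells (TDO) or SKOV3 ovarian cells (IDO, induced with 500 ng/ml IFN-γ) were grown in phenol red-free RPMI with 10% FCS, 2 mM L-glutamine and 500 μM L-tryptophan, ± test compound, 48 hours at 37° C. Supernatant kynurenine was measured by absorbance at 490 nm after Erhlich's reagent.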

TDO [2] = target: T1, TDO; assay: hTDO biochemical coupled assay; details: 330 μM L-tryptophan, read-out: hTDO biochemical assay pIC50 (converted)
From the text: Two different assays were employed: 1. a cell-based assay for detecting the effect of test compounds on kynurenine production in two different cancer cell types. This assay utilised cancer cells which expressed either TDO or IDO and as such was used as a means of testing compound activity at these two enzymes in a cell-based context. 2. a TDO and IDO biochemical coupled assay which utilised recombinantly produced and purified TDO and IDO enzymes in combination with the enzyme formamidase. This coupled enzyme system allowed conversion of N-formylkynurenine produced by TDO or IDO activity to kynurenine which was then quantified by fluorescence following addition of Erhlich's Reagent The protocols for these are set out below.

IDO [3] = target: T2, IDO (Homo sapiens, UniProt P14902); assay: hIDO biochemical coupled assay; details: 45 μM L-tryptophan, read-out: hIDO biochemical assay pIC50 (converted)
IDO [4] = target: T2, IDO; assay: SKOV3 kynurenine cell-based assay (IDO induced by IFN-γ); parameters: IDO expression was induced in the SKOV3 cells by the addition of 500 ng/ml IFN-γ; endogenous in cells; host or cells: SKOV3 (human ovarian adenocarcinoma), induced with IFN-γ; details: 48 hours, read-out: SKOV3 Kynurenine cell based assay pIC50 (converted)
Summary of the method: as §1

[5] = SKOV3 human ovarian adenocarcinoma cells, 500 ng/ml IFN-γ, 500 μM L-tryptophan
[6] = SKOV3 cells, IDO induced by 500 ng/ml IFN-γ

T1 sequence (P48775 whole entry): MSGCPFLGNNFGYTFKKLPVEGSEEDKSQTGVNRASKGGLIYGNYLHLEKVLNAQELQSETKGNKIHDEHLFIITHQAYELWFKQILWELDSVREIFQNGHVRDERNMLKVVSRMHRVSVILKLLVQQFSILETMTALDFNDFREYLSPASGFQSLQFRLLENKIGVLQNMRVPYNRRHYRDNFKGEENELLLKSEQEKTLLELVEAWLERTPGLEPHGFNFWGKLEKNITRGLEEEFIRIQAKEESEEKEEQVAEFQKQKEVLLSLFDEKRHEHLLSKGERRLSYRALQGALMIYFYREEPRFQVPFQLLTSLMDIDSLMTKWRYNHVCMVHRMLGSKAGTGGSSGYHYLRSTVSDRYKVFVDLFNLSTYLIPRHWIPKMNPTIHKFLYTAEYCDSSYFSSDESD
T2 sequence (P14902 whole entry): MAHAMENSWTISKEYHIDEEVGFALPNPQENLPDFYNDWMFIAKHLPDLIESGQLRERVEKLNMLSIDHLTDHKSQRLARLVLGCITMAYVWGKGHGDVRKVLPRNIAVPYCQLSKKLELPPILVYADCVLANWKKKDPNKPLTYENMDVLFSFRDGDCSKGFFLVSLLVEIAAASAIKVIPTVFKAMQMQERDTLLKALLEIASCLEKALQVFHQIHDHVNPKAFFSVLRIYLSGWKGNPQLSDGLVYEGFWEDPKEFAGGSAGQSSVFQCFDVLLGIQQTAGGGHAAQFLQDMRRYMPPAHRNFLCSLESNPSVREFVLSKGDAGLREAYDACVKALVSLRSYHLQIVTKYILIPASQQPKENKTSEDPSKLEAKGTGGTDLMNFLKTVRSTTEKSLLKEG

| SMILES | IC50 (TDO [1]; 500 μM L-tryptophan) [µM] | IC50 (TDO [2]; 17 minutes, room temperature) [µM] | IC50 (IDO [3]; 17 minutes, room temperature) [µM] | IC50 (IDO [4]; [5]) [µM] | IC50 (TDO [1]) [µM] | IC50 (TDO [2]) [µM] | IC50 (IDO [3]) [µM] | IC50 (IDO [4]; [6]) [µM] |
| --- | --- | --- | --- | --- | --- | --- | --- | --- |
| CS(=O)(=O)c1ccc(Oc2cc(Cl)cc3[nH]ncc23)cc1 [Compound 368] | 3.24 to 31.6 | 3.24 to 31.6 | > 100 | 3.24 to 31.6 |  |  |  |  |
| Cn1ncc2c1CCN(c1cc(Cl)cc3[nH]ncc13)C2 [Compound 369] | < 3.16 | < 3.16 | 3.24 to 31.6 | 3.24 to 31.6 |  |  |  |  |
| CC1(C)CN(c2cc(C(F)F)cc3[nH]ncc23)CCN1S(C)(=O)=O [Compound 370] | < 3.16 | < 3.16 | < 3.16 | < 3.16 |  |  |  |  |
| O=C1Nc2ccccc2C12CCN(c1cc(Cl)cc3[nH]ncc13)CC2 [Compound 371] | 3.24 to 31.6 | < 3.16 | > 100 | 3.24 to 31.6 |  |  |  |  |
| O=C1CCCN1C1CCN(c2cc(Cl)cc3[nH]ncc23)CC1 [Compound 372] | < 3.16 | < 3.16 | > 100 | 3.24 to 31.6 |  |  |  |  |
| CS(=O)(=O)NCCn1cc(-c2cc(Cl)cc3[nH]ncc23)cn1 [Compound 373] | < 3.16 | 3.24 to 31.6 | > 100 | 32.4 to 100 |  |  |  |  |
| Clc1cc(N2CCN(c3ccncc3)CC2)c2cn[nH]c2c1 [Compound 374] | < 3.16 | 3.24 to 31.6 | > 100 | 32.4 to 100 |  |  |  |  |
| Clc1cc(N2CCN(c3cccnc3)CC2)c2cn[nH]c2c1 [Compound 375] | < 3.16 | < 3.16 | > 100 | 3.24 to 31.6 |  |  |  |  |
| Cc1nn(C)c2c1CN(c1cc(Cl)cc3[nH]ncc13)CC2 [Compound 376] | < 3.16 | < 3.16 | > 100 | 3.24 to 31.6 |  |  |  |  |
| CNC(=O)NC1CCN(c2cc(Cl)cc3[nH]ncc23)CC1 [Compound 377] | < 3.16 | < 3.16 | 32.4 to 100 | 3.24 to 31.6 |  |  |  |  |
| Cc1c2c(nn1C)CCN(c1cc(Cl)cc3[nH]ncc13)C2 [Compound 378] | < 3.16 | < 3.16 | > 100 | 3.24 to 31.6 |  |  |  |  |
| CC(=O)NCCN1CCN(c2cc(Cl)cc3[nH]ncc23)CC1 [Compound 379] | < 3.16 | < 3.16 | > 100 | > 100 |  |  |  |  |
| CN1CNC(=O)C12CCN(c1cc(Cl)cc3[nH]ncc13)CC2 [Compound 380] | 3.24 to 31.6 | 3.24 to 31.6 | > 100 | 3.24 to 31.6 |  |  |  |  |
| CNC(=O)C1(C)CCN(c2cc(Cl)cc3[nH]ncc23)CC1 [Compound 382] | < 3.16 | < 3.16 | > 100 | 3.24 to 31.6 |  |  |  |  |
| CS(=O)(=O)N1CCC(c2cc(N3CCCC3)cc3[nH]ncc23)CC1 [Compound 383] | 32.4 to 100 | > 100 | > 100 | > 100 |  |  |  |  |
| CS(=O)(=O)c1ccc(-c2cc(Cl)cc3[nH]ncc23)c(Cl)c1 [Compound 384] | < 3.16 | < 3.16 | 3.24 to 31.6 | 3.24 to 31.6 |  |  |  |  |
| CS(=O)(=O)N1CCC(c2cc(C(F)F)cc3[nH]ncc23)CC1 [Compound 387] | < 3.16 | < 3.16 | 3.24 to 31.6 | 3.24 to 31.6 |  |  |  |  |
| CC(C)CN1C(=O)NC2(CCN(c3cc(Cl)cc4[nH]ncc34)CC2)C1=O [Compound 388] | < 3.16 | < 3.16 | < 3.16 | < 3.16 |  |  |  |  |
| O=C1NC2(CCN(c3cc(Cl)cc4[nH]ncc34)CC2)C(=O)N1CC1CCCCC1 [Compound 389] | < 3.16 | < 3.16 | < 3.16 | < 3.16 |  |  |  |  |
| O=C1NC2(CCN(c3cc(Cl)cc4[nH]ncc34)CC2)C(=O)N1CC1CC1 [Compound 390] | < 3.16 | < 3.16 | < 3.16 | < 3.16 |  |  |  |  |
| O=C1NC2(CCN(c3cc(Cl)cc4[nH]ncc34)CC2)C(=O)N1CC1CCOCC1 [Compound 391] | < 3.16 | < 3.16 | < 3.16 | < 3.16 |  |  |  |  |
| CN(C)CCN1C(=O)NC2(CCN(c3cc(Cl)cc4[nH]ncc34)CC2)C1=O [Compound 392] | < 3.16 | < 3.16 | < 3.16 | < 3.16 |  |  |  |  |

| SMILES | IC50 (TDO [1]; 500 μM L-tryptophan) [µM] | IC50 (TDO [2]; 17 minutes, room temperature) [µM] | IC50 (IDO [3]; 17 minutes, room temperature) [µM] | IC50 (IDO [4]; [5]) [µM] | IC50 (TDO [1]) [µM] | IC50 (TDO [2]) [µM] | IC50 (IDO [3]) [µM] | IC50 (IDO [4]; [6]) [µM] |
| --- | --- | --- | --- | --- | --- | --- | --- | --- |
| O=C1N[C@H]2CC[C@@H]1CN(c1cc(Cl)cc3[nH]ncc13)C2 [Compound 393, (1R,5S)-3-(6-chloro-1H-indazol-4-yl)-3,6-diazabicyclo[3.2.2]nonan-7-one] | < 3.16 | < 3.16 | 32.4 to 100 | 32.4 to 100 | 0.055 | 0.245 | 51.3 | 38 |
| O=C1CCC2(CCN1)CCN(c1cc(Cl)cc3[nH]ncc13)CC2 [Compound 394] | < 3.16 | < 3.16 | 3.24 to 31.6 | < 3.16 |  |  |  |  |
| CS(=O)(=O)N1CC2(CN(c3cc(Cl)cc4[nH]ncc34)C2)C1 [Compound 395] | < 3.16 | < 3.16 | > 100 | < 3.16 |  |  |  |  |
| CC(C)Cn1cc(-c2cc(Cl)cc3[nH]ncc23)cn1 [Compound 396, 6-chloro-4-(1-isobutyl-1H-pyrazol-4-yl)-1H-indazole] | < 3.16 | 3.24 to 31.6 | > 100 | > 100 | 0.832 | 3.63 | > 257 | > 10 |
| O=C1NCNC12CCN(c1cc(Cl)cc3[nH]ncc13)CC2 [Compound 397] | < 3.16 | < 3.16 | > 100 | > 100 |  |  |  |  |
| CS(=O)(=O)N1CCOC2(CCN(c3cc(Cl)cc4[nH]ncc34)CC2)C1 [Compound 398] | < 3.16 | < 3.16 | > 100 | > 100 |  |  |  |  |
| Clc1cc(-c2cnn(-c3ccccc3)c2)c2cn[nH]c2c1 [Compound 399] | < 3.16 | > 100 | > 100 | > 100 |  |  |  |  |
| CC(=O)N1CCC(c2cc(Cl)cc3[nH]ncc23)CC1(C)C (stereo not shown) [Compound 400] | < 3.16 | < 3.16 | < 3.16 | < 3.16 |  |  |  |  |
| CNC(=O)CN1CCC(c2cc(Cl)cc3[nH]ncc23)CC1 [Compound 401] | < 3.16 | < 3.16 | > 100 | > 100 |  |  |  |  |
| CC(=O)N1CC2(C1)CN(c1cc(Cl)cc3[nH]ncc13)C2 [Compound 402] | < 3.16 | < 3.16 | 32.4 to 100 | < 3.16 |  |  |  |  |
| CS(=O)(=O)NCCN1CCN(c2cc(Cl)cc3[nH]ncc23)CC1 [Compound 403] | < 3.16 | < 3.16 | > 100 | > 100 |  |  |  |  |
| O=C1Nc2ccccc2NC12CCN(c1cc(Cl)cc3[nH]ncc13)CC2 [Compound 404] | 3.24 to 31.6 | < 3.16 | 32.4 to 100 | < 3.16 |  |  |  |  |
| O=C1NC2(CCN(c3cc(Cl)cc4[nH]ncc34)CC2)C(=O)N1CC(F)(F)F [Compound 405] | < 3.16 | < 3.16 | < 3.16 | < 3.16 |  |  |  |  |
| O=C1NC2(CCN(c3cc(Br)cc4[nH]ncc34)CC2)C(=O)N1Cc1ccccc1 [Compound 406] | < 3.16 | < 3.16 | < 3.16 | < 3.16 |  |  |  |  |
| O=C1NC2(CCN(c3cc(Cl)cc4[nH]ncc34)CC2)C(=O)N1Cc1ncco1 [Compound 407] | < 3.16 | < 3.16 | < 3.16 | < 3.16 |  |  |  |  |
| Cn1ccnc1CN1C(=O)NC2(CCN(c3cc(Cl)cc4[nH]ncc34)CC2)C1=O [Compound 408] | < 3.16 | < 3.16 | < 3.16 | < 3.16 |  |  |  |  |
| CC(=O)N1CCOC2(CCN(c3cc(Cl)cc4[nH]ncc34)CC2)C1 [Compound 409] | 3.24 to 31.6 | < 3.16 | 32.4 to 100 | > 100 |  |  |  |  |
| O=C1NCCN1C1CCN(c2cc(Cl)cc3[nH]ncc23)CC1 [Compound 410] | < 3.16 | < 3.16 | > 100 | 3.24 to 31.6 |  |  |  |  |
| CN1CCN(C2CCN(c3cc(Cl)cc4[nH]ncc34)CC2)C1=O [Compound 411] | < 3.16 | < 3.16 | > 100 | < 3.16 |  |  |  |  |
| CC(=O)NCCN1C(=O)NC2(CCN(c3cc(Cl)cc4[nH]ncc34)CC2)C1=O [Compound 412] | < 3.16 | < 3.16 | < 3.16 | > 100 |  |  |  |  |
| CNC(=O)CN1CCN(c2cc(Cl)cc3[nH]ncc23)CC1(C)C [Compound 413] | < 3.16 | < 3.16 | < 3.16 | 3.24 to 31.6 |  |  |  |  |
| COC(=O)CN1CCN(c2cc(Cl)cc3[nH]ncc23)CC1(C)C [Compound 414] | < 3.16 | < 3.16 | 32.4 to 100 | > 100 |  |  |  |  |
